Test results reported in patent publication US20100183592A1, “HUMAN EPO RECEPTOR AGONISTS, COMPOSITIONS, METHODS AND USES FOR PREVENTING OR TREATING GLUCOSE INTOLERANCE RELATED CONDITIONS” (priority 2006, published 2010).
Each block holds one substance with its values, some of them ahead of it. Where no end group is shown, it is not given here.

Experiments:
[1] = in vivo; cited from earlier work
[2] = tested on: patients with baseline HbA1C 6.0 or higher; assay: datamining of clinical data (GE Clinical Data Services EMR database), patients prescribed EPO; format: in vivo, human; conditions: for magnitude of HbA1C decline: first 3 months after EPO; for fasting blood glucose after EPO: end of time course
Text: GE Healthcare's Clinical Data Services database contains de-identified, normalized, longitudinal, patient-level Electronic Medical Record data from nearly to 4,000 US based physicians practicing in ambulatory setting who use GE Centricity EMR system. This database contains data on >4.7M patient lives. Average follow up time is approximately 3 years. The database contains information on Patient demographics, medical history, visit type, clinical observations (including Diagnosis codes), laboratory test results and medications prescribed. JNJ has purchased a license to this dataset and mined it to look for outcomes on diabetic parameters in patients who were prescribed EPO for anemia.
Population was further filtered to identify patients with Pre-EPO measurements followed by post-EPO measurements on the following variables of interest • Blood glucose, fasting • Hemoglobin A1c as % of total hemoglobin • Hemoglobin, blood • Hematocrit, blood
Patients with at least 1 pre- (up to 60 days prior) and 1 post- (up to 6 months after) EPO treatment measurements were considered for analysis. Number of patients meeting this criterion varied in numbers for different variables and time zones. Patients who were on EPO medication and also had mean HbA1c value of 6.0 or higher were considered as diabetic.

[3] = tested on: DIO mice; assay: IPGTT in DIO (diet induced obese) mice; format: in vivo; conditions: 5 days after dosing
Method: (§1) The experiment described in Example 1 was repeated in DIO (diet induced obese) mice following dosing of CNTO 530 (0.3 mg/kg). This murine model is believed to be more representative of the human disease since the mice become diabetic after being fed a high fat diet (Purina TestDiet #58126 consisting of 60.9% kcal fat and 20.8% kcal carbohydrates). As described in Example 1, an IPGTT was done on the day of dosing and seven days after dosing. The time points during the IPGTT were 15, 30, 60, 90, 120, 150, and 180 minutes after glucose challenge. After the IPGTT was completed on day 7, the mice were sacrificed and whole blood (in EDTA) was collected via cardiac puncture for hematology studies.
(§2) Mice (DIO; n=7) were fasted overnight and fasting blood glucose (FBG) was measured. The animals were randomized based upon FBG. The mice were dosed intravenously with CNTO 530 (0.3 mg/kg) and given glucose intraperitonealy (0.5 mg/g) ten minutes later. Blood glucose was measured at various times (10, 20, 30, 60, 90, 120, 150, 180 minutes after glucose). The IPGTTs were repeated 7, 14, 21, 28, and 35 days after that initial single dose. […]
(§3) Mice (DIO; n=7) were fasted overnight and fasting blood glucose (FBG) was measured. […]
as §3

[4] = cited from earlier work
[5] = tested on: DIO mice; assay: fasting blood glucose in DIO mice; format: in vivo; conditions: DIO mice, 0.03, 0.1, 0.3 mg/kg i.v., 5 days after dosing
Method: (§4) Mice (DIO; n=7) were fasted overnight and fasting blood glucose (FBG) was measured. The animals were randomized based upon FBG and dosed intravenously with EPO (0.03, 0.1, 0.3 mg/kg). An IPGTT (as described above) was done 5 days after dosing. The animals were sacrificed after the IPGTT and whole blood was collected for hematology measurements.
as §4, with “darbepoetin (0.01, 0.03, 0.1” for “EPO (0.03, 0.1, 0.3”, “7” for “5”

[6] = tested on: DIO mice; assay: hematology (hemoglobin, reticulocytes) in DIO mice; format: in vivo; conditions: DIO mice, 0.03, 0.1, 0.3 mg/kg i.v., five days after dosing
Method: as §1, §2, §3, §3

[7] = tested on: patients with end-stage renal disease; conditions: cited from earlier work
[8] = tested on: cells that express the EPO receptor; assay: complement lysis of cells that express the EPO receptor; format: cell-based; conditions: preliminary studies
Text: It has been shown that mutation of two […] (L) residues, L234 & L235, in the IgG1 lower hinge region to alanine (A) will abrogate the ability of the immunoglobulin to mediate complement dependent cytotoxicity (CDC) and antibody dependant cellular cytotoxicity (ADCC) (Hezereh et al., 2001, J. Virol., vol. 75 (24), 12161-68). […] This may be due to the low number of receptors that are found on erythroid progenitor cells. In addition the in vivo expansion of erythroid progenitors as evidenced by significant increases in hematocrit supports the possible functional irrelevance of immune effector functions. However, while no effector function associated affects have been observed, there remains an interest in introducing these mutations as a precautionary step.

[9] = tested on: normal mice; assay: effects on erythropoiesis (hematocrit) in normal mice; format: in vivo; conditions: dosed equally / equal activity units
Text: (§5) In vivo studies were done in normal mice to compare the half-life of EMP-Hinge core mimetibody to that of rHuEPO and to compare their effects on erythropoiesis.

[10] = tested on: EPO dependent UT-7/EPO cell line; assay: in vitro bioactivity assay: viability of rHuEPO-starved UT-7/EPO cells (MTS); format: cell-based, human; conditions: for activity compared with rHuEPO: in vitro cell proliferation assay
Method: The activity of EMP-Hinge core mimetibody was first tested in an in vitro bioactivity assay. For this assay, the EPO dependent UT-7/EPO cell line, derived from a patient with acute megakaryoblastic leukemia, was used (Komatsu et al., 1993, Blood, vol. 82 (2), 456-464). These cells undergo programmed cell death 48 to 72 hours after withdraw from media supplemented with rHuEPO. Cells that have been incubated in the absence of rHuEPO for 24 hours can be saved if treated with rHuEPO or an EPOR agonist. EMP-Hinge core mimetibody was added to cells starved without rHuEPO and cell viability was determined 48 hours after treatment using the tetrazolium compound MTS (CellTiter 96 Aqueous One Solution, Promega) that is metabolized by living cells to yield a product with an absorbance that can be measured. […] In addition, these same cells were stimulated with EMP-Hinge core mimetibody and tyrosine phosphorylation patterns visualized by running cell lysate through a polyacrylamide gel.

[11] = serum concentrations by ELISA, half-life in normal mice; format: in vivo
Method: as §5
The serum concentrations of both rHuEPO and EMP-Hinge core mimetibody were measured by ELISA.

[12] = target: T1, EPO receptor (Homo sapiens, UniProt P19235); assay: competition with 125I-labeled EPO for binding to the EPO receptor
T1 sequence (P19235 25-508): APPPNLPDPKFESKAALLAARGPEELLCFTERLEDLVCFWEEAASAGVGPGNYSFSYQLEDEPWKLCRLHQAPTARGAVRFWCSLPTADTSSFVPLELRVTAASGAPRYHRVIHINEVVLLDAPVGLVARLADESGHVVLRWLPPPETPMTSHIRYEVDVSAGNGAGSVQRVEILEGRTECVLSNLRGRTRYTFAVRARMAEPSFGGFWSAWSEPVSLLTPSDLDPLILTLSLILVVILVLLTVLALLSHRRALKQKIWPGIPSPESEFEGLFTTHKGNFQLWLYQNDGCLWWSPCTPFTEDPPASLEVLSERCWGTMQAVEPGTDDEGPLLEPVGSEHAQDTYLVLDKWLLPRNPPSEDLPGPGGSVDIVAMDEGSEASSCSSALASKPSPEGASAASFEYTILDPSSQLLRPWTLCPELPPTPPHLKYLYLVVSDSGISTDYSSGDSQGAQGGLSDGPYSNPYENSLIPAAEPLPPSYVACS

[13] = 50% serum; cited from earlier work
[14] = baseline HbA1C 7%-8% (7.38%), first month
[15] = baseline HbA1C 8%-9% (8.35%), first month
[16] = baseline HbA1C >9% (10.18), first month
[17] = longitudinal patients, baseline under 126 mg/dL (102 mg/dL)
[18] = listed as EMP-hinge core mimetibody
[19] = UT-7/EPO cells, viability 48 hours after treatment

Substance: CERA: Roche's pegylated epoetin
half-life compared with epoetin / EPO [1]: longer half life

Substance: EPO: glycoprotein hormone of 165 amino acids and four carbohydrate chains, primary regulator of erythropoiesis
decline in HbA1C level ([2]; baseline HbA1C 6.0%-7.0%): no decline
HbA1C level after EPO [2, 14]: 6.99%
decline in HbA1C level [2, 14]: 0.39%
HbA1C level after EPO [2, 15]: 7.51%
decline in HbA1C level [2, 15]: 0.84%
HbA1C level after EPO [2, 16]: 8.49%
decline in HbA1C level [2, 16]: approximately 1.69%
HbA1C level after EPO ([2]; longitudinal dataset, baseline HbA1C 7-8% (7.47%), first 3 months): 7.01%
magnitude of HbA1C decline ([2]; longitudinal dataset, baseline HbA1C 7-8% (7.47%)): 0.46%
further HbA1C change ([2]; longitudinal dataset, baseline HbA1C 7-8%, next 3 months): no significant further change
HbA1C level after EPO ([2]; longitudinal dataset, baseline HbA1C >8 (9.41%), first 3 months): 8.46%
magnitude of HbA1C decline ([2]; longitudinal dataset, baseline HbA1C >8 (9.41%)): 0.95%
further HbA1C change ([2]; longitudinal dataset, baseline HbA1C >8, next 3 month period): no further decline
fasting blood glucose after EPO ([2]; longitudinal patients, baseline FBG>126 mg/dL (173 mg/dL)): 145 mg/dL
decline in fasting blood glucose, average ([2]; longitudinal patients, baseline FBG>126 mg/dL (173 mg/dL), entire time course): 28 mg/dL
decline in FBG level ([2]; longitudinal patients, baseline under 126 mg/dL): do not show any decline
increase in FBG at the end of the time course [2, 17]: 5 mg/dL
fasting blood glucose after EPO [2, 17]: 107 mg/dL
HbA1C level drop, average ([2]; patients with baseline HbA1C above 6.0, first month after EPO administration): 0.5%
decrease in fasting blood glucose concentration ([2]; patients with baseline HbA1C above 6.0, maximum decline over a 4 month period): approximately 30 mg.dL
improvement in hemoglobin ([2]; patients, clinical data): < 1%
Hemoglobin level ([2]; patients, over a 3 month period after initial EPO administration, then plateau): increases steadily
glucose tolerance (IPGTT) ([3]; 0.03 mg/kg i.v.): modest improvement
glucose tolerance (IPGTT) ([3]; 0.3 mg/kg i.v.): modest improvement
time to peak serum levels ([4]; subcutaneous administration): 5 to 24 h
time detectable plasma levels are maintained ([4]; within the therapeutic dose range): at least 24 hours
fasting blood glucose [5]: no statistically significant reduction
hemoglobin [6]: not significantly elevated
reticulocytes [6]: significantly increased in a dose dependent manner
blood triglyceride, total cholesterol and LDL levels [7]: concomitant improvement
insulin resistance [7]: improve insulin resistance

Substance: EMP-Hinge core mimetibody: V-EMP-1-linker-hinge core-CH2-CH3 construct of IgG1 or IgG4 subclass, SEQ ID NOS: 82-89 (QIQGGTYSCHFGPLTWVCKPQGG; cysteine pairing not given here; also: fused via linker to hinge core-CH2-CH3 of IgG1 or IgG4)
complement lysis [8]: does not mediate complement lysis
duration of response compared to rHuEPO [9]: prolonged
maximal response (hematocrit) compared to rHuEPO [9]: higher maximal response
duration of response compared to rHuEPO [9, 18]: maintained for a longer period
maximal response (hematocrit) compared to rHuEPO [9, 18]: significantly higher maximal hematocrit
potency on a molar basis, fold greater than the EMP-1 peptide [10, 19]: 500 fold
potency on a molar basis, fold less than rHuEPO [10, 19]: 5 fold
potency on a molar basis, fold greater than the EMP-1 peptide ([10]; UT-7/EPO cells, viability 48 hours after treatment, listed as EMP-hinge core mimetibody): more than 500 fold
activity compared with rHuEPO [10]: in the range of rHuEPO
activity compared with rHuEPO [10, 18]: substantially similar to recombinant HuEPO
approximate half-life relative to rHuEPO [11]: at least several times that of rHuEPO

competition with 125I-labeled EPO for binding to the EPO receptor [12]: competes
Substance: EMP-1: 20 amino acid peptide with no sequence homology to HuEPO that activates the EPO receptor as a dimer (GGTYSCHFGPLTWVCKPQGG)
ex-vivo half-life [13]: 8 h
